Source: BindingDB's records for doi:10.1021/jm9703911 (Allergan, 1997)

Legend:
[1] = molecular target: T1, Retinoic acid receptor gamma (Homo sapiens, UniProt P13631); assay: Inhibition of [3H]ATRA binding to baculovirus expressed RAR gamma receptor
T1 sequence (P13631 whole entry): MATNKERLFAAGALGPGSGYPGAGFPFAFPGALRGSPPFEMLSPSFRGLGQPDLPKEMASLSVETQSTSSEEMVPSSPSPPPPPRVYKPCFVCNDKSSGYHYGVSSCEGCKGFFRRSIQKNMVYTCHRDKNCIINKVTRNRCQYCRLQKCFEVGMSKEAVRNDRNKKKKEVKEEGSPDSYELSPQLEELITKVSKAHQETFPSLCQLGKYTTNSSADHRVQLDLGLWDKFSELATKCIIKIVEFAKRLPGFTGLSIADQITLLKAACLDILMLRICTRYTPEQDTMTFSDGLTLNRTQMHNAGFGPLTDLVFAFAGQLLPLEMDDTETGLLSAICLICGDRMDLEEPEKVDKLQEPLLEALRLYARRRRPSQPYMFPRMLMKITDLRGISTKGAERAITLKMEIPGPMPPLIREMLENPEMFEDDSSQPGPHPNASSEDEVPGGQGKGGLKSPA

[2] = molecular target: T2, Retinoic acid receptor beta (Homo sapiens, UniProt P10826); assay: Inhibition of [3H]-ATRA binding to baculovirus expressed RAR beta receptor
T2 sequence (P10826 whole entry): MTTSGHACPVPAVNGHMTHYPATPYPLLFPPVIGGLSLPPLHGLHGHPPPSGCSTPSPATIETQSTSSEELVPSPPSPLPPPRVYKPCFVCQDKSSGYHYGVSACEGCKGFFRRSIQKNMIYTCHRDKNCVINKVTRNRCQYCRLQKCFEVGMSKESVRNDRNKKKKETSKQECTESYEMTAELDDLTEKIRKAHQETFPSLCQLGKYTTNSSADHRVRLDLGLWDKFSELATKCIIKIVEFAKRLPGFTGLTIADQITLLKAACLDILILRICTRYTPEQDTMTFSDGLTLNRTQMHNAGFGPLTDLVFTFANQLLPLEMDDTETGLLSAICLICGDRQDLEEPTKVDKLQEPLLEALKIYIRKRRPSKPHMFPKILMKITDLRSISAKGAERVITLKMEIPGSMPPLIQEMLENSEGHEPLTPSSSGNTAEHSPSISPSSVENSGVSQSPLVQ

[3] = molecular target: T3, Retinoic acid receptor alpha (Homo sapiens, UniProt P10276); assay: Inhibition of [3H]ATRA binding to baculovirus expressed RAR alpha receptor
T3 sequence (P10276 whole entry): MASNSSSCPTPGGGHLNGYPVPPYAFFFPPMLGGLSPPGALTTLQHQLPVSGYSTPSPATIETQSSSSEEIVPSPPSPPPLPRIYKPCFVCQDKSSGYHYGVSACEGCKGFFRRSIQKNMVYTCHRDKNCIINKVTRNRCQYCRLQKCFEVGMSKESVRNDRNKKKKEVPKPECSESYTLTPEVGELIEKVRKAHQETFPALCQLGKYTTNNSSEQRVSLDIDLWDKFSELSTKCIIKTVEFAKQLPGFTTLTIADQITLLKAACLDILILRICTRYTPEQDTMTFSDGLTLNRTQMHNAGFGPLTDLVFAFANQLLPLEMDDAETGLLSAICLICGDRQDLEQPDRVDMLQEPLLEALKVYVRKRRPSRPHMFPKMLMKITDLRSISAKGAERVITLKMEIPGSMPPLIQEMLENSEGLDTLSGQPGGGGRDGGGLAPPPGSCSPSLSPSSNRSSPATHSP

Compound	Kd [1] [µM]	Kd [2] [nM]	Kd [3] [nM]
Cc1ccc(C2=CC(C)(C)Oc3c(Br)cc(C(=O)Nc4cc(F)c(C(=O)O)c(F)c4)cc32)cc1	10.6	898	1.5
Cc1ccc(C2=CC(C)(C)Oc3c(Br)cc(C(=O)Nc4ccc(C(=O)O)c(F)c4)cc32)cc1	7.26	320	2.8

More lines, now with the values ahead:

Kd [1] [µM]	Kd [2] [nM]	Kd [3] [nM]	Compound
0.863	622	5.7	Cc1ccc(C2=CCC(C)(C)c3ccc(C(=O)Nc4ccc(C(=O)O)c(F)c4)cc32)cc1
3.12	1020	27	Cc1ccc(C2=CCC(C)(C)c3ccc(C(=O)Nc4ccc(C(=O)O)cc4)cc32)cc1
> 30	2260	32	Cc1ccc(C2=CCC(C)(C)c3ccc(C(=O)Nc4cc(F)c(C(=O)O)c(F)c4)cc32)cc1
